Results reported in patent US12421222B2 (AUGUSTINE THERAPEUTICS, priority 2021, dated 2025).

Tested on: acetylated tubulin (Lys40) in HeLa cells
Test: Acetylated α-tubulin measurement in vitro (immunocytochemistry)
Assay type: cell-based
Settings: Homo sapiens, 6 hours incubation, acetylated tubulin (Lys40) by immunocytochemistry, read-out: IC50 (Tubulin deacetylation)
Method: HeLa cells were cultured in UltraCulture serum-free medium (Lonza) supplemented with 2 mM glutamine (Lonza). Assays were performed at 96-well or 384-well format, differences in assay protocols are detailed in Table 6. Cells per well were plated and incubated overnight at 37° C. overnight in a humidified atmosphere containing 5% CO2. Cell density and seeding volumes are detailed in Table 6. Compounds (dissolved in 100% DMSO) or DMSO (vehicle) were added manually by diluting them in culture medium at 10× final assay concentration and adding 10 μL to cells (96-well protocol). Alternatively, 50 nL compound was added directly to the cell culture using the Echo650 (Labcyte) (384-well protocol). In this assay, the final assay concentration of DMSO is 0.1%-0.4%. Trichostatin A (TSA) was used as a positive control. Cells were incubated with compounds at 37° C. in a humidified atmosphere containing 5% CO2 for 6 hours. Levels of acetylated tubulin (Lys40) were assessed by immunocytochemistry using target-specific antibodies. Cells were fixed with 4% PFA at RT as detailed in Table 6. After 2-3 wash steps with PBS, cells were permeabilized with 0.5% Triton in PBS at RT for 10 minutes followed by 1-2 washes with PBS. To avoid non-specific antibody staining, cells were blocked with 3% BSA in PBS at room temperature for 1 hour. […] Cells were washed 2-3 times with PBS and labelled for 1 h at RT with goat anti-mouse conjugated with Alexa 647 (Thermofisher) and goat anti-rabbit conjugated with Alexa 555 (Thermofisher) secondary antibodies, diluted in 1% BSA to a final concentration of 1:1000. Simultaneously, nuclei were stained with 1:10000-1:15000 Hoechst (Thermofisher). Incubation time and temperature of the primary antibodies are detailed in Table 6. Cells were washed 2-3 times with PBS and they were imaged with the Operetta CLS or Opera Phenix (PerkinElmer). Imaging is further detailed in Table 6. For imaging analysis, the Harmony analysis software (PerkinElmer) was used. Cytoplasmic (defined by total α-tubulin staining) intensities per well were used for α-tubulin (acetylated and total) quantification. Intensities were measured per cell and then averaged per well. Mean intensity levels of acetylated tubulin were normalized to the mean intensity levels of total tubulin. The changes in acetylated tubulin were normalized for each plate using GraphPad Prism software: tubulin acetylation in vehicle (DMSO)-treated cells were set to 0% while tubulin acetylation in TSA-treated cells were set to 100%. EC50 values were calculated using the log(inhibitor) vs. response—Variable slope (four parameters) nonlinear regression in GraphPad Prism software.

Row | IC50 | SMILES
1 | ≤ 100 nM | Cc1nc(SCC(=O)c2ccc(CNC(=O)CO)s2)c2cc(F)cnc2n1 [Example 124, N-((5-(2-((6-fluoro-2-methylpyrido[2,3-d]pyrimidin-4-yl)thio)acetyl)thiophen-2-yl)methyl)-2-hydroxyacetamide]
2 | 100 to 500 nM | COc1ccc2nc(C)nc(SCC(=O)c3ccc(CNC(=O)C4CCCN4)s3)c2c1 (stereo not drawn) [Example 184, N-((5-(2-((6-methoxy-2-methylquinazolin-4-yl)thio)acetyl)thiophen-2-yl)methyl)pyrrolidine-2-carboxamide]
3 | ≤ 100 nM | O=C(CO)NCc1ccc(C(=O)CSc2nc3nc(C(F)(F)F)ccc3o2)s1 [Example 72, 2-hydroxy-N-((5-(2-((5-(trifluoromethyl)oxazolo[4,5-b]156yrrolid-2-yl)thio)acetyl)thiophen-2-yl)methyl)acetamide]
4 | 100 to 500 nM | Cc1nc(SCC(=O)c2ccc(CNC(=O)CO)s2)c2cc(F)ccc2n1 [Example 67, N-((5-(2-((6-fluoro-2-methylquinazolin-4-yl)thio)acetyl)thiophen-2-yl)methyl)-2-hydroxyacetamide]
5 | 100 to 500 nM | COc1ccc2nc(C)nc(SCC(=O)c3ccc(CNC(=O)N(C)C)s3)c2c1 [Example 189, 3-((5-(2-((6-methoxy-2-methylquinazolin-4-yl)thio)acetyl)thiophen-2-yl)methyl)-1,1-dimethylurea]
6 | 100 to 500 nM | COc1ccc2nc(C)nc(SCC(=O)c3ccc(CNC(=O)C(F)F)s3)c2c1 [Example 172, 2,2-difluoro-N-((5-(2-((6-methoxy-2-methylquinazolin-4-yl)thio)acetyl)thiophen-2-yl)methyl)acetamide]
7 | ≤ 100 nM | CCn1cc2c(SCC(=O)c3ccc(CNC(=O)CO)s3)nc(C(F)(F)F)nc2n1 [Example 135, N-((5-(2-((2-ethyl-6-(trifluoromethyl)-2H-pyrazolo[3,4-d]pyrimidin-4-yl)thio)acetyl)thiophen-2-yl)methyl)-2-hydroxyacetamide]
8 | ≤ 100 nM | Cc1nc(SCC(=O)c2ccc(CNC(=O)CO)s2)c2cc(OC(F)(F)F)ccc2n1 [Example 126, 2-hydroxy-N-((5-(2-((2-methyl-6-(trifluoromethoxy)quinazolin-4-yl)thio)acetyl)thiophen-2-yl)methyl)acetamide]
9 | 100 to 500 nM | Cn1ncc2c(SCC(=O)c3ccc(CNC(=O)CO)s3)ncnc21 [Example 59, 2-hydroxy-N-((5-(2-((1-methyl-1H-pyrazolo[3,4-d]pyrimidin-4-yl)thio)acetyl)thiophen-2-yl)methyl)acetamide]
10 | 1000 to 3330 nM | Cn1ncc2c(SCC(=O)c3ccc(CNC(=O)C4CC4)s3)ncnc21 [Example 31, N-((5-(2-((1-methyl-1H-pyrazolo[3,4-d]pyrimidin-4-yl)thio)acetyl)thiophen-2-yl)methyl)cyclopropanecarboxamide]
11 | 100 to 500 nM | COc1ccc2nc(C)nc(SCC(=O)c3ccc(CNC(=O)CO)s3)c2c1F [Example 158, N-((5-(2-((5-fluoro-6-methoxy-2-methylquinazolin-4-yl)thio)acetyl)thiophen-2-yl)methyl)-2-hydroxyacetamide]
12 | ≤ 100 nM | Cc1nc(SCC(=O)c2ccc(CNC(=O)CO)s2)c2cccnc2n1 [Example 64, 2-hydroxy-N-((5-(2-((2-methylpyrido[2,3-d]pyrimidin-4-yl)thio)acetyl)thiophen-2-yl)methyl)acetamide]
13 | ≤ 100 nM | COCCn1cc2c(SCC(=O)c3ccc(CNC(=O)CO)s3)nc(C(F)(F)F)nc2n1 [Example 132, 2-hydroxy-N-((5-(2-((2-(2-methoxyethyl)-6-(trifluoromethyl)-2H-pyrazolo[3,4-d]pyrimidin-4-yl)thio)acetyl)thiophen-2-yl)methyl)acetamide]
14 | ≤ 100 nM | COCCn1ncc2c(SCC(=O)c3ccc(CNC(=O)CO)s3)nc(C(F)(F)F)nc21 [Example 125, 2-hydroxy-N-((5-(2-((1-(2-methoxyethyl)-6-(trifluoromethyl)-1H-pyrazolo[3,4-d]pyrimidin-4-yl)thio)acetyl)thiophen-2-yl)methyl)acetamide]
15 | 1000 to 3330 nM | Cc1nc(SCC(=O)c2ccc(CNC(=O)CO)s2)c2cn(C)nc2n1 [Example 65, N-((5-(2-((2,6-dimethyl-2H-pyrazolo[3,4-d]pyrimidin-4-yl)thio)acetyl)thiophen-2-yl)methyl)-2-hydroxyacetamide]
16 | 100 to 500 nM | O=C(CSc1nc(C(F)(F)F)nc2ncccc12)c1ccc(CNS(=O)(=O)CC(F)(F)F)s1 [Example 123, 2,2,2-trifluoro-N-((5-(2-((2-(trifluoromethyl)pyrido[2,3-d]pyrimidin-4-yl)thio)acetyl)thiophen-2-yl)methyl)ethane-1-sulfonamide]
17 | 100 to 500 nM | O=C(CSc1nc(C(F)(F)F)nc2ncccc12)c1ccc(CNS(=O)(=O)C2CC2)s1 [Example 122, N-((5-(2-((2-(trifluoromethyl)pyrido[2,3-d]pyrimidin-4-yl)thio)acetyl)thiophen-2-yl)methyl)cyclopropanesulfonamide]
18 | 100 to 500 nM | O=C(CO)NCc1ccc(C(=O)CSc2nccn3cncc23)s1 [Example 181, 2-hydroxy-N-((5-(2-(imidazo[1,5-a]pyrazin-8-ylthio)acetyl)thiophen-2-yl)methyl)acetamide]
19 | ≤ 100 nM | COc1cc(C(F)(F)F)cc2c(SCC(=O)c3ccc(CNC(=O)CO)s3)nc(C)nc12 [Example 148, 2-hydroxy-N-((5-(2-((8-methoxy-2-methyl-6-(trifluoromethyl)quinazolin-4-yl)thio)acetyl)thiophen-2-yl)methyl)acetamide]
20 | 100 to 500 nM | COc1ccc2nc(C)nc(SCC(=O)c3ccc(CN4CCOCC4=O)s3)c2c1 [Example 137, 4-((5-(2-((6-methoxy-2-methylquinazolin-4-yl)thio)acetyl)thiophen-2-yl)methyl)morpholin-3-one]
21 | ≤ 100 nM | Cc1nc(SCC(=O)c2ccc(CNC(=O)CO)s2)c2cc(N(C)C)ncc2n1 [Example 149, N-((5-(2-((6-(dimethylamino)-2-methylpyrido[3,4-d]pyrimidin-4-yl)thio)acetyl)thiophen-2-yl)methyl)-2-hydroxyacetamide]
22 | ≤ 100 nM | O=C(CSc1nc(C(F)(F)F)nc2ncccc12)c1ccc(CN2CCC(O)C2=O)s1 (stereo in doubt) [Example 156, (R)-3-hydroxy-1-((5-(2-((2-(trifluoromethyl)pyrido[2,3-d]pyrimidin-4-yl)thio)acetyl)thiophen-2-yl)methyl)pyrrolidin-2-one]
23 | 100 to 500 nM | Cc1nc(SCC(=O)c2ccc(CNC(=O)CO)s2)c2cc(N3CCOCC3)ccc2n1 [Example 81, 2-hydroxy-N-((5-(2-((2-methyl-6-morpholinoquinazolin-4-yl)thio)acetyl)thiophen-2-yl)methyl)acetamide]
24 | ≤ 100 nM | COc1ccc2nc(C)nc(SCC(=O)c3ccc(CNC(=O)C4CN(C)C4)s3)c2c1 [Example 178, N-((5-(2-((6-methoxy-2-methylquinazolin-4-yl)thio)acetyl)thiophen-2-yl)methyl)-1-methylazetidine-3-carboxamide]
25 | 100 to 500 nM | COCC(=O)NCc1ccc(C(=O)CSc2nc(C)nc3ncc(OC)cc23)s1 [Example 163, 2-methoxy-N-((5-(2-((6-methoxy-2-methylpyrido[2,3-d]pyrimidin-4-yl)thio)acetyl)thiophen-2-yl)methyl)acetamide]
26 | 100 to 500 nM | Cc1nc(SCC(=O)c2ccc(CNC(=O)CO)s2)c2cc(Cl)c(F)cc2n1 [Example 73, N-((5-(2-((6-chloro-7-fluoro-2-methylquinazolin-4-yl)thio)acetyl)thiophen-2-yl)methyl)-2-hydroxyacetamide]
27 | 100 to 500 nM | COc1ccc2nc(C)nc(SCC(=O)c3ccc(CN(C)C(=O)CO)s3)c2c1 [Example 109, 2-hydroxy-N-((5-(2-((6-methoxy-2-methylquinazolin-4-yl)thio)acetyl)thiophen-2-yl)methyl)-N-methylacetamide]
28 | 500 to 1000 nM | CC(C)(C)C(=O)NCc1ccc(C(=O)CSc2nc(C(F)(F)F)nc3ccccc23)s1 [Example 38, N-((5-(2-((2-(trifluoromethyl)quinazolin-4-yl)thio)acetyl)thiophen-2-yl)methyl)pivalamide]
29 | 1000 to 3330 nM | Cc1nc(SCC(=O)c2ccc(CNC(=O)C(C)(C)C)s2)c2cc(F)ccc2n1 [Example 9, N-((5-(2-((6-fluoro-2-methylquinazolin-4-yl)thio)acetyl)thiophen-2-yl)methyl)pivalamide]
30 | 100 to 500 nM | COc1ccc2nc(C)nc(SCC(=O)c3ccc(CNC(=O)CO)s3)c2c1 [Example 60, 2-Hydroxy-N-((5-(2-((6-methoxy-2-methylquinazolin-4-yl)thio)acetyl)thiophen-2-yl)methyl)acetamide]
